Test system: late passage (P14) pancreatic-derived stromal cells
Assay: Trichostatin A 24 h time course, gene expression by Real-Time PCR (Example 3)
Assay type: cell-based, human
Details: 2.5 μM
Description: Human pancreatic-derived stromal cells were obtained according to the methods described in Example 13. Cells were seeded into a 24-well tissue culture plate at a density of 5000/cm^2 and cultured in DMEM containing 10% fetal bovine serum under standard cell culture conditions until confluent. After the cells reached confluency, 2.5 μM trichostatin A, diluted in DMSO and medium was added to the wells. Parallel cultures were treated with an equivalent concentration of DMSO as a vehicle control. RNA samples were obtained from treated cultures at 30 minutes, 1.5 hours, 3 hours, 6 hours, 12 hours and 24 hours following the addition of trichostatin A or DMSO. Culture medium was removed, the cells were washed with PBS, and RLT lysis buffer with β-mercaptoethanol (Qiagen) was added. RNA was purified using the RNeasy Mini Kit (Qiagen). RNA quantity and quality were determined using a spectrophotometer, and CDNA was made using the iScript cDNA synthesis kit (BioRad).
The expression levels of Sox17, HNF-3 beta, Pdx-1, insulin, and glucagon were determined by Real-Time PCR. Samples of 20 ng cDNA were used in each reaction, which was performed on the Applied Biosystems 7500 according to the methods described in Example 15. Data were analyzed using the accompanying software. Human pancreas cDNA was included as a positive control, and results were normalized against GAPDH expression levels.
Real-time PCR amplifcation and quantitative analysis. Unless otherwise stated, all reagents were purchased from Applied Biosystems. Real-time PCR reactions were performed using the ABI PRISM™ 7500 Sequence Detection System. TAQMAN™ FAST UNIVERSAL PCR MASTER MIX™ (ABI, CA) was used with 20 ng of reverse transcribed RNA in a total reaction volume of 20 μl. Each cDNA sample was run in duplicate to allow correction of pipetting errors. Primers and FAM-labeled TAQMAN™ probes were used at concentrations of 200 nM. The level of expression for each target gene was normalized using the pre-developed Applied Biosystem's human glyceraldehyde-3-phosphate dehydrogenase (GAPDH) endogenous control kit. Primers and probes were designed using either ABI PRISM PRIMER EXPRESS™ software or a pre-developed ABI gene analysis kit. For each gene, either one of the primers or the probe were designed to be exon-boundary spanning. This eliminated the possibility of the primers/probe binding to any genomic DNA present. The primer and probe sets are listed as follows: Pdx-1 (Hs00426216), Insulin (Hs00355773), glucagon (Hs00174967), and FoxA2 (HNF 3-beta) (Hs00232764). The remaining primers were designed using the PRIMERS program (ABI, CA). After an initial 95° C. incubation for 20 sec, samples were cycled 40 times in two stages: a denaturation step at 95° C. for 3 sec, followed by an annealing/extension step at 60° C. for 30 sec.
For each primer/probe set, a cycle time value was determined as the cycle number at which the fluorescence intensity of the PCR reaction reached a specific value in the middle of the exponential region of amplification. An increase in expression of a gene corresponded to a decrease in the number of cycles required for the fluorescence intensity to reach this value.

SMILES: CC(/C=C/C(=O)NO)=C\[C@@H](C)C(=O)c1ccc(N(C)C)cc1 [trichostatin A]
- HNF-3 beta gene expression (0.5 h): nd (not detectable at >40 cycles by RT-PCR)
- Insulin gene expression (0.5 h): nd (not detectable at >40 cycles by RT-PCR)
- PDX-1 gene expression (0.5 h): nd (not detectable at >40 cycles by RT-PCR)
- Sox17 gene expression (0.5 h): + (detectable between 35 and 40 cycles by RT-PCR)
- glucagon gene expression (0.5 h): nd (not detectable at >40 cycles by RT-PCR)
- HNF-3 beta gene expression (1.5 h): nd (not detectable at >40 cycles by RT-PCR)
- Insulin gene expression (1.5 h): nd (not detectable at >40 cycles by RT-PCR)
- PDX-1 gene expression (1.5 h): nd (not detectable at >40 cycles by RT-PCR)
- Sox17 gene expression (1.5 h): nd (not detectable at >40 cycles by RT-PCR)
- glucagon gene expression (1.5 h): nd (not detectable at >40 cycles by RT-PCR)
- HNF-3 beta gene expression (3 h): nd (not detectable at >40 cycles by RT-PCR)
- Insulin gene expression (3 h): nd (not detectable at >40 cycles by RT-PCR)
- PDX-1 gene expression (3 h): nd (not detectable at >40 cycles by RT-PCR)
- Sox17 gene expression (3 h): + (detectable between 35 and 40 cycles by RT-PCR)
- glucagon gene expression (3 h): nd (not detectable at >40 cycles by RT-PCR)
- Sox-17 RT-PCR detection cycle (3 hours): > 35 cycles
- HNF-3 beta gene expression (6 h): + (detectable between 35 and 40 cycles by RT-PCR)
- Insulin gene expression (6 h): nd (not detectable at >40 cycles by RT-PCR)
- PDX-1 gene expression (6 h): nd (not detectable at >40 cycles by RT-PCR)
- Sox17 gene expression (6 h): + (detectable between 35 and 40 cycles by RT-PCR)
- glucagon gene expression (6 h): nd (not detectable at >40 cycles by RT-PCR)
- HNF-3 beta RT-PCR detection cycle (6 hours): > 35 cycles
- HNF-3 beta gene expression (12 h): + (detectable between 35 and 40 cycles by RT-PCR)
- Insulin gene expression (12 h): nd (not detectable at >40 cycles by RT-PCR)
- PDX-1 gene expression (12 h): + (detectable between 35 and 40 cycles by RT-PCR)
- Sox17 gene expression (12 h): + (detectable between 35 and 40 cycles by RT-PCR)
- glucagon gene expression (12 h): nd (not detectable at >40 cycles by RT-PCR)
- Pdx-1 RT-PCR detection cycle (12 hours): > 35 cycles
- HNF-3 beta gene expression (24 h): +++ (detectable at less than 35 cycles by RT-PCR with std error less than 0.9)
- Insulin gene expression (24 h): nd (not detectable at >40 cycles by RT-PCR)
- PDX-1 gene expression (24 h): +++ (detectable at less than 35 cycles by RT-PCR with std error less than 0.9)
- Sox17 gene expression (24 h): +++ (detectable at less than 35 cycles by RT-PCR with std error less than 0.9)
- glucagon gene expression (24 h): + (detectable between 35 and 40 cycles by RT-PCR)
- HNF-3 beta RT-PCR detection cycle (24 hours): < 35 cycles
- HNF-3 beta gene expression relative to human pancreas (24 hours): ~0.075 % of human pancreas
- Pdx-1 RT-PCR detection cycle (24 hours): < 35 cycles
- Pdx-1 gene expression relative to human pancreas (24 hours): ~0.2 % of human pancreas levels
- Sox-17 RT-PCR detection cycle (24 hours): < 35 cycles
- Sox-17 gene expression relative to human pancreas (24 hours): ~3 % of human pancreas levels
- glucagon RT-PCR detection cycle (24 hours): 35-40 cycles
